The supplement of paper PMC10307832

Tests used:
Experiment in all cases: relative viability (nuclei count vs DMSO), 5 days (fraction); higher = more cells survive
XMD13-2 + OSI-027 = compound: C1CC1C(=O)NC2=NNC3=C2C=CC(=C3)C4=CC(=CC=C4)C(=O)NC5CC5 [XMD13-2] + COc1cccc2cc(-c3nc([C@H]4CC[C@H](C(=O)O)CC4)n4ncnc(N)c34)[nH]c12 [OSI-027] (partner 0.5 µM)
In short: (§1)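 Each reported value is a median over duplicate plates. It expresses relative viability: treated-well nuclei count divided by vehicle-well nuclei count. Lung cancer cell lines in 1536-well plates were dosed by pin tool a day after seeding, alone with one drug or with a fixed anchor-drug dose plus five library-drug doses (not always all listed) in √10 steps, and nuclei were counted after 5 days.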

ALW-II-49-7 + Foretinib = compound: Cc1ccc(C(=O)Nc2cccc(C(F)(F)F)c2)cc1Nc1cncc(C(N)=O)c1 [ALW-II-49-7] + COc1cc2c(Oc3ccc(NC(=O)C4(C(=O)Nc5ccc(F)cc5)CC4)cc3F)ccnc2cc1OCCCN1CCOCC1 [Foretinib] (partner 0.25 µM)
In short: as §1

ALW-II-49-7 + Decitabine = compound: Cc1ccc(C(=O)Nc2cccc(C(F)(F)F)c2)cc1Nc1cncc(C(N)=O)c1 [ALW-II-49-7] + Nc1ncn([C@H]2C[C@H](O)[C@@H](CO)O2)c(=O)n1 [Decitabine] (partner 2 µM)
In short: as §1

Dasatinib + Decitabine = compound: Cc1nc(Nc2ncc(C(=O)Nc3c(C)cccc3Cl)s2)cc(N2CCN(CCO)CC2)n1 [Dasatinib] + Nc1ncn([C@H]2C[C@H](O)[C@@H](CO)O2)c(=O)n1 [Decitabine] (partner 2 µM)
In short: as §1

Cell Line	relative viability (XMD13-2 + OSI-027; first compound 0.05 µM)	relative viability (XMD13-2 + OSI-027; first compound 0.1581 µM)	relative viability (XMD13-2 + OSI-027; first compound 0.5 µM)	relative viability (XMD13-2 + OSI-027; first compound 1.581 µM)	relative viability (XMD13-2 + OSI-027; first compound 5 µM)	relative viability (ALW-II-49-7 + Foretinib; first compound 0.253 µM)	relative viability (ALW-II-49-7 + Foretinib; first compound 0.8 µM)	relative viability (ALW-II-49-7 + Foretinib; first compound 2.53 µM)	relative viability (ALW-II-49-7 + Foretinib; first compound 8 µM)	relative viability (ALW-II-49-7 + Decitabine; first compound 0.08 µM)	relative viability (ALW-II-49-7 + Decitabine; first compound 0.253 µM)	relative viability (ALW-II-49-7 + Decitabine; first compound 0.8 µM)	relative viability (ALW-II-49-7 + Decitabine; first compound 2.53 µM)	relative viability (ALW-II-49-7 + Decitabine; first compound 8 µM)	relative viability (Dasatinib + Decitabine; first compound 0.005 µM)	relative viability (Dasatinib + Decitabine; first compound 0.01581 µM)	relative viability (Dasatinib + Decitabine; first compound 0.05 µM)	relative viability (Dasatinib + Decitabine; first compound 0.1581 µM)	relative viability (Dasatinib + Decitabine; first compound 0.5 µM)	relative viability (ALW-II-49-7 + Foretinib; first compound 0.08 µM)
201T	0.95	0.731	0.854	0.701	0.723	1.24	1.01	0.447	1.13	0.832	0.84	0.872	0.846	0.904	0.834	0.795	0.802	0.646	0.416	–
A549	–	–	–	–	–	0.92	0.78	0.961	0.824	0.207	0.211	0.246	0.335	0.254	0.222	0.236	0.307	0.173	0.178	0.918
A-427	0.462	0.354	0.489	0.444	0.355	0.95	1.12	1.14	1.2	0.531	0.585	0.616	0.612	0.655	0.616	0.513	0.543	0.491	0.493	1.16
ABC-1	0.693	0.486	0.572	0.427	0.368	1.11	1.14	0.863	1.42	1.02	1.11	1.01	1.35	0.947	1.31	0.953	1.18	1.06	0.975	0.959
BEN	0.309	0.276	0.312	0.291	0.327	0.756	0.768	0.752	0.692	0.693	0.751	0.776	0.728	0.656	0.667	0.598	0.567	0.442	0.387	0.829
CAL-12T	0.803	0.585	0.549	0.426	0.577	1.14	1.19	1.07	0.843	–	–	–	–	–	–	–	–	–	–	1.11
COR-L23	0.915	0.78	0.838	0.711	0.864	1.09	0.903	0.913	0.945	0.426	0.521	0.408	0.501	0.439	0.428	0.42	0.386	0.298	0.307	1.1
COR-L 105	0.83	0.658	0.668	0.66	0.707	0.949	0.992	0.99	1.23	0.722	0.71	0.673	0.58	0.616	0.599	0.604	0.478	0.445	0.297	1.02
Calu-6	–	–	–	–	–	0.832	0.912	0.832	0.805	–	–	–	–	–	–	–	–	–	–	0.914
